Source: patent US20230322761A1, “DEGRADATION OF BRUTON'S TYROSINE KINASE (BTK) BY CONJUGATION OF BTK INHIBITORS WITH E3 LIGASE LIGAND AND METHODS OF USE” (BEIGENE, LTD., priority 2020, published 2023)

Molecular target: T1, BTK (Homo sapiens, UniProt Q06187)
T1 construct: endogenous in cells; host or cells: TMD-8 cells
Test: BTK degradation in TMD-8 cells, HTRF assay after 6 h treatment
Type: cell-based
Settings: IC50 (DC50) of BTK degradation
Procedure, shortened: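 TMD-8 cells treated for 6 h with 8 compound doses in 6-fold dilution steps from a 1 mM 500× DMSO stock (0.2% DMSO), then lysed 30 min at room temperature. BTK in lysate detected by HTRF (665/620 nm) after overnight antibody incubation; DC50 from four-parameter curve fit.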

T1 sequence (Q06187 whole entry): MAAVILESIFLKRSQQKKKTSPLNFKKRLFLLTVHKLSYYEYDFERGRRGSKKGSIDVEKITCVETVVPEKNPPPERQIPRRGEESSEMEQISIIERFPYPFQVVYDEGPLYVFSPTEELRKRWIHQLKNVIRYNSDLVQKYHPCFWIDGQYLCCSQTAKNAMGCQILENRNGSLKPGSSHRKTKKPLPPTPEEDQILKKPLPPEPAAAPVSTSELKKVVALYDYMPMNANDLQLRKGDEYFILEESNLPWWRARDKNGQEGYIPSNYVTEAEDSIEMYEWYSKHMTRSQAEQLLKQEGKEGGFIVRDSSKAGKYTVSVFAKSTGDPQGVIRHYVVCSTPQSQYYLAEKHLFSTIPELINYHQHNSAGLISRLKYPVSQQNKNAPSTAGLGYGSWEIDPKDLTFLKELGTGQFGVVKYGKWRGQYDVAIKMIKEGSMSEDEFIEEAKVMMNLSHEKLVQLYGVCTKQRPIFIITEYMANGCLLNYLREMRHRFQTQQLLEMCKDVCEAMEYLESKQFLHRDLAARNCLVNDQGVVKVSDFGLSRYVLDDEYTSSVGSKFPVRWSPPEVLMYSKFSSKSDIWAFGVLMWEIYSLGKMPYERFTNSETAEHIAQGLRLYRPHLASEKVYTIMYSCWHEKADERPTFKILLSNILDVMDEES

DC50 [nM]	SMILES
1.75	Cc1cc(-c2n[nH]c3ncc(-c4ccc(N5CCN(CC6CCN(c7ccc(N8CCC(=O)NC8=O)c(C)c7)CC6)CC5)cn4)cc23)ccc1[C@@H](C)NC(=O)c1noc(C(C)(C)C)n1 [Example 78, (R)-5-(tert-butyl)-N-(1-(4-(5-(5-(4-((1-(4-(2,4-dioxotetrahydropyrimidin-1(2H)-yl)-3-methylphenyl)piperidin-4-yl)methyl)piperazin-1-yl)pyridin-2-yl)-1H-pyrazolo[3,4-b]pyridin-3-yl)-2-methylphenyl)ethyl)-1,2,4-oxadiazole-3-carboxamide]
3.95	Cc1cc(-c2n[nH]c3ncc(-c4ccc(N5CCN(CCCOc6ccc(C7CCC(=O)NC7=O)c(F)c6)CC5)cc4)cc23)ccc1[C@@H](C)NC(=O)c1noc(C(C)(C)C)n1 (stereo partly drawn) [Example 86, 5-(tert-butyl)-N-((1R)-1-(4-(5-(4-(4-(3-(4-(2,6-dioxopiperidin-3-yl)-3-fluorophenoxy)propyl)piperazin-1-yl)phenyl)-1H-pyrazolo[3,4-b]pyridin-3-yl)-2-methylphenyl)ethyl)-1,2,4-oxadiazole-3-carboxamide]
7.21	Cc1cc(CCN2CCN(c3ccc(-c4cnc5[nH]nc(-c6ccc([C@@H](C)NC(=O)c7nc(C(C)(C)C)no7)c(C)c6)c5c4)cc3)CC2)ccc1C1CCC(=O)NC1=O (stereo partly drawn) [Example 87, 3-(tert-butyl)-N-((1R)-1-(4-(5-(4-(4-(4-(2,6-dioxopiperidin-3-yl)-3-methylphenethyl)piperazin-1-yl)phenyl)-1H-pyrazolo[3,4-b]pyridin-3-yl)-2-methylphenyl)ethyl)-1,2,4-oxadiazole-5-carboxamide]
9.41	Cc1cc(-c2n[nH]c3ncc(-c4ccc(CCN5CCC(c6ccc([C@@H]7CCC(=O)NC7=O)cc6)CC5)cc4)cc23)ccc1CNC(=O)c1nc(C(C)(C)C)no1 [Example 88, (S)-3-(tert-butyl)-N-(4-(5-(4-(2-(4-(4-(2,6-dioxopiperidin-3-yl)phenyl)piperidin-1-yl)ethyl)phenyl)-1H-pyrazolo[3,4-b]pyridin-3-yl)-2-methylbenzyl)-1,2,4-oxadiazole-5-carboxamide]
0.635	Cc1cc(-c2n[nH]c3ncc(-c4ccc(CCN5CCC(c6ccc([C@H]7CCC(=O)NC7=O)cc6)CC5)cc4)cc23)ccc1CNC(=O)c1nc(C(C)(C)C)no1 [Example 89, (R)-3-(tert-butyl)-N-(4-(5-(4-(2-(4-(4-(2,6-dioxopiperidin-3-yl)phenyl)piperidin-1-yl)ethyl)phenyl)-1H-pyrazolo[3,4-b]pyridin-3-yl)-2-methylbenzyl)-1,2,4-oxadiazole-5-carboxamide]
> 2000	Cc1cc(-c2n[nH]c3ncc(-c4ccc(N5CCN(CC6CCN(c7cc(F)ccc7N7CCC(=O)NC7=O)CC6)CC5)cc4)cc23)ccc1[C@@H](C)NC(=O)c1noc(C(C)(C)C)n1 [Example 90, (R)-5-(tert-butyl)-N-(1-(4-(5-(4-(4-((1-(2-(2,4-dioxotetrahydropyrimidin-1(2H)-yl)-5-fluorophenyl)piperidin-4-yl)methyl)piperazin-1-yl)phenyl)-1H-pyrazolo[3,4-b]pyridin-3-yl)-2-methylphenyl)ethyl)-1,2,4-oxadiazole-3-carboxamide]
1.97	Cc1cc(-c2n[nH]c3ncc(-c4ccc(N5CCN(CCC6CCN(c7ccc([C@H]8CCC(=O)NC8=O)cc7)CC6)CC5)cc4)cc23)ccc1CNC(=O)c1noc(C(C)(C)C)n1 [Example 91, (R)-5-(tert-butyl)-N-(4-(5-(4-(4-(2-(1-(4-(2,6-dioxopiperidin-3-yl)phenyl)piperidin-4-yl)ethyl)piperazin-1-yl)phenyl)-1H-pyrazolo[3,4-b]pyridin-3-yl)-2-methylbenzyl)-1,2,4-oxadiazole-3-carboxamide]
